# Structures can show the parent of a compound that is named as a salt.
# Experiments:
# [1] = tested on: NHDF (human prepuce fibroblasts); test: Cytostatic effects on NHDF cells in the anti-HCMV cytopathogenicity test; assay type: cell-based; conditions: concentration at which no visible cytostatic effects on NHDF cells are evident vs untreated cell control; 6 days
# Description: (§1) Anti-HCMV (Anti-Human Cytomegalovirus) Cytopathogenicity Tests The test compounds are employed as 50 millimolar (mM) solutions in dimethyl sulfoxide (DMSO). Ganciclovir®, Foscarnet® and Cidofovir® are used as reference compounds. After the addition of 2 μl of the 50, 5, 0.5 and 0.05 mM DMSO stock solutions respectively to 98 μl portions of cell culture medium in row […] for duplicate determinations, 1:2 dilutions are carried out with 50 μl portions of medium up to row 11 of the 96-well plate. The wells in rows 1 and 12 each contain 50 μl of medium. 150 μl of a suspension of 1×10^4 cells (human prepuce fibroblasts [NHDF]) are then pipetted into each of the wells (row 1=cell control) and, in rows 2-12, a mixture of HCMV-infected and uninfected NHDF cells (M.O.I.=0.001-0.002), i.e. 1-2 infected cells per 1000 uninfected cells. Row 12 (without substance) serves as virus control. The final test concentrations are 250-0.0005 μM. The plates are incubated at 37° C./5% CO2 for 6 days, i.e. until all the cells in the virus controls are infected (100% cytopathogenic effect [CPE]). The wells are then fixed and stained by adding a mixture of formalin and Giemsa's dye (30 minutes), washed with double-distilled water and dried in a drying oven at 50° C. The plates are then assessed visually using an overhead microscope (plaque multiplier from Technomara). The following data can be obtained from the test plates: CC50 (NHDF)=substance concentration in μM at which no visible cytostatic effects on the cells are evident compared with the untreated cell control;
# [2] = tested on: HCMV; test: Anti-HCMV (anti-human cytomegalovirus) cytopathogenicity test; assay type: cell-based; conditions: concentration inhibiting the CPE by 50% vs untreated virus control, HCMV-infected NHDF cells, 6 days, visual assessment
# Description: as §1, with “plates: EC50 (HCMV)=substance” for “plates: CC50 (NHDF)=substance”, “μM” for “μM at”, “which inhibits” for “which no visible cytostatic effects on”, “the CPE (cytopathic effect) by 50%” for “the cells are evident”, “untreated virus” for “untreated cell”
# [3] = Cytostatic effects on NHDF cells in the anti-HCMV cytopathogenicity test; assay type: cell-based, human; conditions: human, concentration at which no visible cytostatic effects on NHDF cells are evident vs untreated cell control
# Description: as §1
# [4] = Human betaherpesvirus 5, NHDF, 144 h
EC50 [2] [µM],"EC50 [2, 4] [µM]",Structure (SMILES),CC50 [1] [µM],CC50 at 6 days [3] [µM]
0.002,–,"COc1c(N2CCC(C(=O)O)CC2)c(F)cc2c(=O)c(C(=O)NCc3ccc(OC(F)(F)F)cc3C)cn(CC(F)(F)F)c12 [Example 75, 1-[6-Fluoro-8-methoxy-3-({[2-methyl-4-(trifluoromethoxy)benzyl]amino}carbonyl)-4-oxo-1-(2,2,2-trifluoroethyl)-1,4-dihydroquinolin-7-yl]piperidine-4-carboxylic acid diethanolamine salt]",47,–
0.002,–,"COc1c(N2CCC(C(=O)O)CC2)c(F)cc2c(=O)c(C(=O)NCc3ccc(OC(F)(F)F)cc3C)cn(CC(F)(F)F)c12 [Example 76, 1-[6-Fluoro-8-methoxy-3-({[2-methyl-4-(trifluoromethoxy)benzyl]amino}carbonyl)-4-oxo-1-(2,2,2-trifluoroethyl)-1,4-dihydroquinolin-7-yl]piperidine-4-carboxylic acid choline salt]",47,–
–,0.003,"COc1c(N2CCC(C(=O)O)CC2)c(F)cc2c(=O)c(C(=O)NCc3ccc(OC(F)(F)F)cc3Cl)cn(CC(F)(F)F)c12 [Example 48, 1-[3-({[2-Chloro-4-(trifluoromethoxy)benzyl]amino}carbonyl)-6-fluoro-8-methoxy-4-oxo-1-(2,2,2-trifluoroethyl)-1,4-dihydroquinolin-7-yl]piperidine-4-carboxylic acid]",–,20
–,0.006,"COc1c(N2CCC(C(=O)O)CC2)c(F)cc2c(=O)c(C(=O)NCc3ccc(OC(F)(F)F)cc3C)cn(CCF)c12 [Example 49, 1-[6-Fluoro-1-(2-fluoroethyl)-8-methoxy-3-({[2-methyl-4-(trifluoromethoxy)benzyl]amino}carbonyl)-4-oxo-1,4-dihydroquinolin-7-yl]piperidine-4-carboxylic acid]",–,94

# The next lines start with the molecule.
Structure (SMILES),EC50 [2] [µM],"EC50 [2, 4] [µM]",CC50 [1] [µM],CC50 at 6 days [3] [µM]
"COc1c(N2C[C@@H](C)[C@@H](O)[C@@H](C)C2)c(F)cc2c(=O)c(C(=O)NCc3ccc(OC(F)(F)F)cc3C)cn(CC(F)(F)F)c12 [Example 32, 6-Fluoro-7-[(all-cis)-4-hydroxy-3,5-dimethylpiperidin-1-yl]-8-methoxy-N-[2-methyl-4-(trifluoromethoxy)benzyl]-4-oxo-1-(2,2,2-trifluoroethyl)-1,4-dihydroquinoline-3-carboxamide]",–,0.017,–,11
COc1c(N2CCC(C(=O)O)CC2)c(F)cc2c(=O)c(C(=O)NCc3ccc(Cl)cc3C)cn(CC(F)(F)F)c12 [Example 58],–,0.006,–,47
"COc1c(N2CCC3(CC2)CNC(=O)C3)c(F)cc2c(=O)c(C(=O)NCc3ccc(OC(F)(F)F)cc3C)cn(CC(F)(F)F)c12 [Example 33, 6-Fluoro-8-methoxy-N-[2-methyl-4-(trifluoromethoxy)benzyl]-4-oxo-7-(3-oxo-2,8-diazaspiro[4.5]dec-8-yl)-1-(2,2,2-trifluoroethyl)-1,4-dihydroquinoline-3-carboxamide]",–,0.017,–,19

# Reference: patent US7977349B2, “Substituted quinolones III” (Aicuris GmbH & Co. KG, priority 2006, dated 2011)
